≈ marks a conversion by molar mass, not a printed value.
How the values were obtained:
[1] = tested on: HIV-1 (NL4.3 WT); experiment: Inhibition of HIV-induced cytopathogenic effect in MT-4 cells (MTT), HIV-1; format: cell-based; conditions: for IC50: Human immunodeficiency virus 1, MT4; for IC50 / HIV-1 (NL4.3 WT) IC50: 50% protection against HIV-induced cytopathogenic effect, MT-4 cells, MTT; for HIV-1 (NL4.3 WT) SI: selectivity index = ratio of CC50 to IC50, HIV-1
Protocol: (§1) A rapid and automated assay procedure was used for the in vitro evaluation of anti-HIV agents. An HTLV-1 transformed T4-cell line MT-4, which was previously shown to be highly susceptible to and permissive for HIV infection, served as the target cell line. Inhibition of the HIV-induced cytopathogenic effect was used as the end point. The viabitlity of both HIV-and mock-infected cells was assessed spectrophotometrically via in situ reduction of 3-(4,5-dimethylthiazol-2-yl)-2,5-diphenyltetrazolium bromide (MTT). The 50% cytotoxic concentration (CC50 in μg/ml) was defined as the concentration of compound that reduced the absorbance of the mock-infected control sample by 50%. The percent protection achieved by the compound in HIV-infected cells was calculated by the following formula:
(§2) [formula] whereby (ODT)HIV is the optical density measured with a given concentration of the test compound in HIV-infected cells; (ODC)HIV is the optical density measured for the control untreated HIV-infected cells; (ODC)MOCK is the optical density measured for the control untreated mock-infected cells; all optical density values were determined at 540 nm. The dose achieving 50% protection according to the above formula was defmed as the 50% inhibitory concentration (IC50 in μg/ml). The ratio of CC50 to IC50 was defined as the selectivity index (SI).
(§3) Cells: MT-4 cells (Miyoshi et al., 1982) were grown and maintained in RPMI 1640 medium supplemented with 10% heat-inactivated fetal calf serum, 2 mM 1-glutamine, 0.1% sodium bicarbonate, and 20 œg of gentamicin per ml.
(§4) Viruses: The HIV-1(NL4.3) strain (Adachi et al., 1986) is a molecular clone obtained from the National Institutes of Health (Bethesda, Md.). The HIV-2(ROD) (Barr,-Sinoussi et al., 1983) stock was obtained from culture supernatant of HIV-2 infected cell lines.

[2] = tested on: HIV-2 (ROD); experiment: Inhibition of HIV-induced cytopathogenic effect in MT-4 cells (MTT), HIV-2; format: cell-based; conditions: for IC50: Human immunodeficiency virus 2, MT4; for IC50 / HIV-2 (ROD) IC50: 50% protection against HIV-induced cytopathogenic effect, MT-4 cells, MTT; for HIV-2 (ROD) SI: selectivity index = ratio of CC50 to IC50, HIV-2
Protocol: as §1, §2, §3, §4

[3] = Cytotoxicity in mock-infected MT-4 cells (MTT); format: cell-based; conditions: human; mock-infected MT-4 cells, absorbance reduced by 50%, MTT
Protocol: as §1, with “formula: Examples of inhibition of cell proliferation by particular compounds of formula (I) can be found by looking at the respective CC50 values in the MT-4 cell line. Cells: MT-4 cells (Miyoshi et al., 1982) were grown and maintained in RPMI 1640 medium supplemented with 10% heat-inactivated fetal calf serum, 2 mM […], 0.1% sodium bicarbonate, and 20 œg of gentamicin per ml.” for “formula:”

[4] = tested on: MT-4 cells; experiment: Cytotoxicity in mock-infected MT-4 cells (MTT); format: cell-based
Protocol: as §1, with “formula: Examples of inhibition of cell proliferation by particular compounds of formula (I) can be found by looking at the respective CC50 values in the MT-4 cell line. Cells: MT-4 cells (Miyoshi et al., 1982) were grown and maintained in RPMI 1640 medium supplemented with 10% heat-inactivated fetal calf serum, 2 mM […], 0.1% sodium bicarbonate, and 20 œg of gentamicin per ml.” for “formula:”

Row | SMILES | IC50 [1] | IC50 [2] | melting point | HIV-1 (NL4.3 WT) IC50 [1] | HIV-2 (ROD) IC50 [2] | HIV-1 (NL4.3 WT) SI [1] | HIV-2 (ROD) SI [2] | CC50 [3] | cytotoxicity CC50 [4]
1 | Cc1[nH]c(=S)n(Nc2ccccc2Cl)c1-c1ccccc1 [Compound 9.02, 1-(2-Chlorophenylamino)-2,3-dihydro-4-methyl-5-phenyl-1H-imidazole-2-thione] | 7.4 µg/mL (≈ 23.4 µM) | > 65 µg/mL | 220 to 221 °C |  |  | 9.0 | <1 | 65 µg/mL (≈ 206 µM) | 
2 | CCc1[nH]c(=S)n(Nc2cccc(C)c2)c1-c1ccccc1 [Compound 9.25, 2,3-Dihydro-4-ethyl-1-(3-methylphenylamino)-5-phenyl-1H-imidazole-2-thione] | 3.9 µg/mL (≈ 12.6 µM) | > 19.8 µg/mL | 202 to 204 °C |  |  | 5.0 | <1 | 19.8 µg/mL (≈ 64 µM) | 
3 | Cc1[nH]c(=S)n(Nc2cccc(Cl)c2)c1-c1cccc(C#N)c1 [Compound 9.32, 1-(3-Chlorphenylamino)-5-(3-cyanophenyl)-2,3-dihydro-4-methyl-1H-imidazole-2-thione] |  |  |  | 13.8 µg/mL | >32.1 µg/mL | 2.3 | <1 |  | 32.1 µg/mL
4 | Cc1[nH]c(=S)n(Nc2cccc(Cl)c2)c1-c1cccc(Cl)c1 [Compound 9.07, 5-(3-Chlorophenyl)-1-(3-chlorophenylamino)-2,3-dihydro-4-methyl-1H-imidazole-2-thione] | 0.9 µg/mL (≈ 2.57 µM) | 1.4 µg/mL (≈ 4 µM) | 204 °C |  |  | 18.3 | 11.6 | 15.9 µg/mL (≈ 45.4 µM) | 
5 | Cc1ccc(Nn2c(-c3ccccc3)c(C)[nH]c2=S)cc1C [Compound 9.13, 2,3-Dihydro-1-(3,4-dimethylphenylamino)-4-methyl-5-phenyl-1H-imidazole-2-thione] | 1.1 µg/mL (≈ 3.55 µM) | > 17.9 µg/mL | 228 °C |  |  | 16.3 | <1 | 17.9 µg/mL (≈ 57.8 µM) | 
6 | Cc1[nH]c(=S)n(Nc2cccc(Cl)c2)c1-c1ccccc1 [Compound 9.01, 1-(3-Chlorophenylamino)-2,3-dihydro-4-methyl-5-phenyl-1H-imidazole-2-thione] | 2.8 µg/mL (≈ 8.87 µM) | 2.6 µg/mL (≈ 8.23 µM) | 215 to 217 °C |  |  | 7.6 | 8.4 | 21.5 µg/mL (≈ 68.1 µM) | 
7 | Cc1[nH]c(=S)n(Nc2cccc([N+](=O)[O-])c2)c1-c1ccccc1 [Compound 9.17, 2,3-Dihydro-4-methyl-1-(3-nitrophenylamino)-5-phenyl-1H-imidazole-2-thione] | 3.7 µg/mL (≈ 11.3 µM) | > 15.4 µg/mL | 214 °C |  |  | 4.2 | <1 | 15.4 µg/mL (≈ 47.2 µM) | 
8 | S=c1[nH]c2c(n1Nc1cccc(Cl)c1)CCCC2 [Compound 9.11, 1-(3-Chlorophenylamino)-2,3,4,5,6,7-hexahydro-1H-benzimidazole-2-thione] | 13.1 µg/mL (≈ 46.8 µM) | > 34 µg/mL | 148 °C |  |  | 2.6 | <1 | 34 µg/mL (≈ 122 µM) | 
9 | COc1cccc(Nn2c(-c3ccccc3)c(C)[nH]c2=S)c1 [Compound 9.31] |  |  |  | 3.1 µg/mL | >12.3 µg/mL | 4.0 | <1 |  | 12.3 µg/mL
10 | Cc1[nH]c(=S)n(Nc2ccccc2)c1-c1ccccc1 [Compound 9.12, 2,3-Dihydro-4-methyl-5-phenyl-1-(phenylamino)-1H-imidazole-2-thione] | 5.2 µg/mL (≈ 18.5 µM) | > 14.7 µg/mL | 224 to 226 °C |  |  | 2.8 | <1 | 14.7 µg/mL (≈ 52.2 µM) | 

The next lines start with results.

Row | IC50 [1] | IC50 [2] | melting point | HIV-1 (NL4.3 WT) IC50 [1] | HIV-2 (ROD) IC50 [2] | SMILES | HIV-1 (NL4.3 WT) SI [1] | HIV-2 (ROD) SI [2] | CC50 [3] | cytotoxicity CC50 [4]
11 | 0.2 µg/mL (≈ 0.629 µM) | 0.23 µg/mL (≈ 0.723 µM) | 168 °C |  |  | Cc1ncn(Nc2cccc(Cl)c2)c1-c1cccc(Cl)c1 [Compound 13.03, 5-(3-Chlorophenyl)-1-(3-chlorophenylamino)-4-methyl-1H-imidazole] | 73.5 | 63.8 | 14.7 µg/mL (≈ 46.2 µM) | 
12 | 1.4 µg/mL (≈ 5.32 µM) | > 7.6 µg/mL | 159 °C |  |  | Cc1cccc(Nn2cnc(C)c2-c2ccccc2)c1 [Compound 13.09, 4-Methyl-1-(3-methylphenylamino)-5-phenyl-1H-imidazole] | 5.6 | <1 | 7.6 µg/mL (≈ 28.9 µM) | 
13 | 0.5 µg/mL (≈ 1.38 µM) | 0.3 µg/mL (≈ 0.827 µM) | 164 °C |  |  | Cc1ncn(Nc2cccc(Cl)c2)c1-c1cccc(Br)c1 [Compound 13.02, 5-(3-Bromophenyl)-1-(3-chlorophenylamino)-4-methyl-1H-imidazole] | 6.7 | 9.5 | 3.13 µg/mL (≈ 8.63 µM) | 
14 |  |  |  | 3.4 µg/mL | >10.9 µg/mL | Cc1ncn(Nc2cccc(Cl)c2)c1-c1cccc(C#N)c1 [Compound 13.15, 1-(3-Chlorphenylamino)-5-(3-cyanophenyl)-4-methyl-1H-imidazole] | 3.2 | <1 |  | 10.9 µg/mL
15 | 0.5 µg/mL (≈ 1.76 µM) | 0.5 µg/mL (≈ 1.76 µM) | 218 °C |  |  | Cc1ncn(Nc2cccc(Cl)c2)c1-c1ccccc1 [Compound 13.01, 1-(3-Chlorophenylamino)-4-methyl-5-phenyl-1H-imidazole] | 6.0 | 6.9 | 3.25 µg/mL (≈ 11.5 µM) | 

— patent US7049332B2, “HIV inhibiting N-aminoimidazole derivatives” (K. U. Leuven Research & Development, priority 2001, dated 2006)
